{"source": "ChEMBL document CHEMBL4011640", "about": "“Identification and Structure-Activity Relationships of Novel Compounds that Potentiate the Activities of Antibiotics in Escherichia coli” (J Med Chem, 2017)", "key": {"Escherichia coli BW25113 [1]": {"test_system": "Escherichia coli BW25113", "experiment": "Inhibition of AcrA efflux pump in Escherichia coli BW25113 assessed as compound concentration required for potentiation of novobiocin-induced antibacterial activity by 4 fold by checkerboard assay"}, "Escherichia coli [2]": {"test_system": "Escherichia coli", "experiment": "Antimicrobial activity against AcrAB-TolC knocked out Escherichia coli GD102 harboring […] pores in the outer membrane after 24 hrs by two-fold broth microdilution assay", "type": "functional", "details": "GD102, 24 h"}, "Escherichia coli [3]": {"test_system": "Escherichia coli", "experiment": "Ratio of MIC for wild type Escherichia coli harboring […] pores in the outer membrane to MIC for wild type Escherichia coli harboring […] pores in the outer membrane in presence of erythromycin", "type": "functional"}, "Escherichia coli [4]": {"test_system": "Escherichia coli", "experiment": "Ratio of MIC for wild type Escherichia coli harboring […] pores in the outer membrane to MIC for AcrAB-TolC knocked out Escherichia coli GD102 harboring […] pores in the outer membrane", "type": "functional"}, "Escherichia coli [5]": {"test_system": "Escherichia coli", "experiment": "Antimicrobial activity against Escherichia coli harboring AcrAB-TolC deletion mutant after 24 hrs by two-fold broth microdilution assay", "type": "functional"}, "Escherichia coli [6]": {"test_system": "Escherichia coli", "experiment": "Inhibition of AcrA in Escherichia coli assessed as increase in HT dye uptake at 25 uM measured up to 600 secs by fluorescence method"}, "Escherichia coli [7]": {"test_system": "Escherichia coli", "experiment": "Ratio of MIC for wild type Escherichia coli harboring […] pores in the outer membrane to MIC for wild type Escherichia coli harboring […] pores in the outer membrane in presence of novobiocin", "type": "functional"}, "Escherichia coli [8]": {"test_system": "Escherichia coli", "experiment": "Antimicrobial activity against Escherichia coli BW25113 after 24 hrs by two-fold broth microdilution assay", "type": "functional", "details": "BW25113, 24 h"}, "Escherichia coli [9]": {"test_system": "Escherichia coli", "experiment": "Antimicrobial activity against Escherichia coli harboring pores in outer membrane after 24 hrs by two-fold broth microdilution assay", "type": "functional"}, "Escherichia coli [10]": {"test_system": "Escherichia coli", "experiment": "Binding affinity to Escherichia coli AG100 His-tagged AcrA at 25 uM by SPR assay"}, "Escherichia coli [11]": {"test_system": "Escherichia coli", "experiment": "Inhibition of AcrA in Escherichia coli assessed as HT dye uptake at 25 uM measured up to 600 secs by fluorescence method relative to control"}, "Escherichia coli [12]": {"test_system": "Escherichia coli", "experiment": "Disruption of transmembrane potential in Escherichia coli live cells harboring pores in outer membrane at 10 uM by DiSC3(5) probe-based fluorescence assay", "type": "functional"}, "[13]": {"experiment": "Ratio of MIC for wild type Escherichia coli BW25113 to MIC for Escherichia coli harboring […] pores in the outer membrane", "type": "functional, cell membranes"}, "HEK293": {"test_system": "HEK293", "experiment": "Cytotoxicity against HEK293 cells assessed as reduction in cell viability after overnight incubation by Cell Titer Glo assay", "type": "cell-based", "details": "Homo sapiens"}, "Escherichia coli BW25113 [14]": {"test_system": "Escherichia coli BW25113", "experiment": "Inhibition of AcrA efflux pump in Escherichia coli BW25113 assessed as compound concentration required for potentiation of novobiocin-induced antibacterial activity by 2 fold by checkerboard assay"}, "Escherichia coli [15]": {"test_system": "Escherichia coli", "experiment": "Inhibition of AcrA in Escherichia coli assessed as increase in HT dye uptake at 25 uM measured up to 600 secs by fluorescence method relative to control"}, "Escherichia coli [16]": {"test_system": "Escherichia coli", "experiment": "Binding affinity to Escherichia coli AG100 His-tagged AcrA at 50 uM by SPR assay"}}, "note": "Calls of active or inactive are those of the source. The calls are words filed in the database; no cut-off is given here.", "data": [{"smiles": "O=C(/C=C/c1ccc(Br)cc1)Nc1ccc(C2=NCCN2)cc1", "values": [{"measurement": "Activity", "setting": "Escherichia coli BW25113 [1]", "value": 100, "unit": "µM"}]}, {"smiles": "O=C(/C=C/c1ccccc1Cl)Nc1ccc(C2=NCCN2)cc1", "values": [{"measurement": "MIC", "setting": "Escherichia coli [2]", "value": 100, "unit": "µM"}, {"measurement": "Ratio", "setting": "Escherichia coli [3]", "value": 8}, {"measurement": "Ratio", "setting": "Escherichia coli [4]", "value": 4}, {"measurement": "MIC", "setting": "Escherichia coli [5]", "value": 200, "unit": "µM"}, {"measurement": "Activity", "setting": "Escherichia coli [6]", "value": "Active"}, {"measurement": "Ratio", "setting": "Escherichia coli [7]", "value": 32}, {"measurement": "MIC", "setting": "Escherichia coli [8]", "value": "> 200", "unit": "µM"}, {"measurement": "MIC", "setting": "Escherichia coli [9]", "value": 400, "unit": "µM"}, {"measurement": "Activity", "setting": "Escherichia coli [10]", "value": "Active"}, {"measurement": "Activity", "setting": "Escherichia coli BW25113 [1]", "value": 25, "unit": "µM"}, {"measurement": "fold change (FC)", "setting": "Escherichia coli [11]", "value": 9.7}, {"measurement": "Activity", "setting": "Escherichia coli [12]", "value": "inactive"}, {"measurement": "Ratio", "setting": "[13]", "value": 1}, {"measurement": "IC50", "setting": "HEK293", "value": 10.5, "unit": "µM"}]}, {"smiles": "O=C(/C=C/c1ccc(Cl)cc1)Nc1ccc(C2=NCCN2)cc1", "values": [{"measurement": "MIC", "setting": "Escherichia coli [2]", "value": 25, "unit": "µM"}, {"measurement": "Ratio", "setting": "Escherichia coli [3]", "value": 4}, {"measurement": "Ratio", "setting": "Escherichia coli [4]", "value": 4}, {"measurement": "MIC", "setting": "Escherichia coli [5]", "value": 50, "unit": "µM"}, {"measurement": "Activity", "setting": "Escherichia coli [6]", "value": "Active"}, {"measurement": "Ratio", "setting": "Escherichia coli [7]", "value": 8}, {"measurement": "MIC", "setting": "Escherichia coli [8]", "value": 200, "unit": "µM"}, {"measurement": "MIC", "setting": "Escherichia coli [9]", "value": 100, "unit": "µM"}, {"measurement": "Activity", "setting": "Escherichia coli BW25113 [1]", "value": 25, "unit": "µM"}, {"measurement": "fold change (FC)", "setting": "Escherichia coli [11]", "value": 2.5}, {"measurement": "Ratio", "setting": "[13]", "value": 2}]}, {"smiles": "O=C(Nc1ccc(CO)cc1)c1ccc(C(=O)Nc2ccc(CO)cc2)c(Cl)c1", "values": [{"measurement": "Activity", "setting": "Escherichia coli BW25113 [1]", "value": "> 200", "unit": "µM"}]}, {"smiles": "O=C(Nc1ccc(C2=NCCN2)cc1)c1ccc(C(=O)Nc2ccc(C3=NCCN3)cc2)c(Br)c1", "values": [{"measurement": "Activity", "setting": "Escherichia coli BW25113 [1]", "value": 50, "unit": "µM"}]}, {"smiles": "O=C(Nc1ccc(C2=NCCN2)cc1)c1ccc(Cl)cc1", "values": [{"measurement": "Activity", "setting": "Escherichia coli BW25113 [1]", "value": 200, "unit": "µM"}]}, {"smiles": "COc1ccc(/C=C/C(=O)Nc2ccc(C3=NCCN3)cc2)cc1", "values": [{"measurement": "Activity", "setting": "Escherichia coli BW25113 [1]", "value": 100, "unit": "µM"}]}, {"smiles": "Cc1cc(C(=O)Nc2ccc(C3=NCCN3)cc2)ccc1C(=O)Nc1ccc(C2=NCCN2)cc1", "values": [{"measurement": "Activity", "setting": "Escherichia coli BW25113 [1]", "value": 25, "unit": "µM"}]}, {"smiles": "N#Cc1cccc(NC(=O)c2ccc(C(=O)Nc3cccc(C#N)c3)c(Cl)c2)c1", "values": [{"measurement": "Activity", "setting": "Escherichia coli BW25113 [1]", "value": "> 400", "unit": "µM"}]}, {"smiles": "O=C(CCC(=O)Nc1ccc(C2=NCCN2)cc1)Nc1ccc(C2=NCCN2)cc1", "values": [{"measurement": "Activity", "setting": "Escherichia coli BW25113 [1]", "value": "> 400", "unit": "µM"}]}, {"smiles": "O=C(/C=C/c1cccc(Cl)c1)Nc1ccc(C2=NCCN2)cc1", "values": [{"measurement": "Activity", "setting": "Escherichia coli BW25113 [1]", "value": 50, "unit": "µM"}]}, {"smiles": "CC(C)(C)c1ccc(/C=C/C(=O)Nc2ccc(C3=NCCN3)cc2)cc1", "values": [{"measurement": "MIC", "setting": "Escherichia coli [2]", "value": 12.5, "unit": "µM"}, {"measurement": "Ratio", "setting": "Escherichia coli [3]", "value": 2}, {"measurement": "Ratio", "setting": "Escherichia coli [4]", "value": 2}, {"measurement": "MIC", "setting": "Escherichia coli [5]", "value": 12.5, "unit": "µM"}, {"measurement": "Activity", "setting": "Escherichia coli [6]", "value": "Active"}, {"measurement": "Ratio", "setting": "Escherichia coli [7]", "value": 2}, {"measurement": "MIC", "setting": "Escherichia coli [8]", "value": 25, "unit": "µM"}, {"measurement": "Activity", "setting": "Escherichia coli BW25113 [14]", "value": 12.5, "unit": "µM"}, {"measurement": "MIC", "setting": "Escherichia coli [9]", "value": 25, "unit": "µM"}, {"measurement": "Activity", "setting": "Escherichia coli [10]", "value": "Active"}, {"measurement": "fold change (FC)", "setting": "Escherichia coli [11]", "value": 2.6}, {"measurement": "Ratio", "setting": "[13]", "value": 1}, {"measurement": "fold change (FC)", "setting": "Escherichia coli [15]", "value": 2.6}]}, {"smiles": "O=C(Nc1ccc(NC(=O)c2ccc(C3=NCCN3)cc2)cc1)c1ccc(C2=NCCN2)cc1", "values": [{"measurement": "MIC", "setting": "Escherichia coli [2]", "value": 12.5, "unit": "µM"}, {"measurement": "MIC", "setting": "Escherichia coli [5]", "value": 25, "unit": "µM"}, {"measurement": "Activity", "setting": "Escherichia coli [6]", "value": "inactive"}, {"measurement": "MIC", "setting": "Escherichia coli [8]", "value": 50, "unit": "µM"}, {"measurement": "MIC", "setting": "Escherichia coli [9]", "value": 50, "unit": "µM"}, {"measurement": "Activity", "setting": "Escherichia coli [10]", "value": "Active"}, {"measurement": "Activity", "setting": "Escherichia coli BW25113 [1]", "value": 12.5, "unit": "µM"}, {"measurement": "Activity", "setting": "Escherichia coli [16]", "value": "Active"}]}, {"smiles": "CC(C)c1ccc(/C=C/C(=O)Nc2ccc(C3=NCCN3)cc2)cc1", "values": [{"measurement": "MIC", "setting": "Escherichia coli [2]", "value": 25, "unit": "µM"}, {"measurement": "Ratio", "setting": "Escherichia coli [3]", "value": 8}, {"measurement": "Ratio", "setting": "Escherichia coli [4]", "value": 2}, {"measurement": "MIC", "setting": "Escherichia coli [5]", "value": 25, "unit": "µM"}, {"measurement": "Activity", "setting": "Escherichia coli [6]", "value": "Active"}, {"measurement": "Ratio", "setting": "Escherichia coli [7]", "value": 8}, {"measurement": "MIC", "setting": "Escherichia coli [8]", "value": 100, "unit": "µM"}, {"measurement": "MIC", "setting": "Escherichia coli [9]", "value": 50, "unit": "µM"}, {"measurement": "Activity", "setting": "Escherichia coli [10]", "value": "Active"}, {"measurement": "Activity", "setting": "Escherichia coli BW25113 [1]", "value": 50, "unit": "µM"}, {"measurement": "fold change (FC)", "setting": "Escherichia coli [11]", "value": 6.3}, {"measurement": "Activity", "setting": "Escherichia coli [12]", "value": "inactive"}, {"measurement": "Ratio", "setting": "[13]", "value": 2}, {"measurement": "IC50", "setting": "HEK293", "value": "> 100", "unit": "µM"}]}, {"smiles": "CC(C)[C@@H]1NC(=O)[C@H](C)OC(=O)[C@@H](C(C)C)NC(=O)[C@@H](C(C)C)OC(=O)[C@H](C(C)C)NC(=O)[C@H](C)OC(=O)[C@@H](C(C)C)NC(=O)[C@@H](C(C)C)OC(=O)[C@H](C(C)C)NC(=O)[C@H](C)OC(=O)[C@@H](C(C)C)NC(=O)[C@@H](C(C)C)OC1=O", "values": [{"measurement": "Activity", "setting": "Escherichia coli [12]; TDE = time-dependent effect", "value": "Tde"}]}, {"smiles": "O=C(/C=C/c1ccccc1C(F)(F)F)Nc1ccc(C2=NCCN2)cc1", "values": [{"measurement": "Activity", "setting": "Escherichia coli BW25113 [1]", "value": 50, "unit": "µM"}]}, {"smiles": "COC(=O)c1ccc(C(=O)Nc2ccc(C3=NCCN3)cc2)cc1", "values": [{"measurement": "Activity", "setting": "Escherichia coli BW25113 [1]", "value": "> 400", "unit": "µM"}]}, {"smiles": "Cn1cnnc1-c1ccc(NC(=O)c2ccc(C(=O)Nc3ccc(-c4nncn4C)cc3)c(Cl)c2)cc1", "values": [{"measurement": "Activity", "setting": "Escherichia coli BW25113 [1]", "value": "> 400", "unit": "µM"}]}]}
